Where “and” joins values, the source holds several entries; their conditions need not be identical. Identical values can stand only once.

The values that follow come from publication PMC10876669, “Substrate promiscuity of inositol 1,4,5-trisphosphate kinase driven by structurally-modified ligands and active site plasticity” (Nature Communications, 2024).

Assay [1] concerns the target T1, IP3K-KD (human IP3K-KD A isoform, residues 187–461) (Homo sapiens, UniProt P23677).
T1 construct: human IP3K-KD A isoform (residues 187–461); GST (cleaved yes); made in house; host or cells: Escherichia coli BL21 star (DE3)
As to the kind of experiment: Ligand displacement assay: fluorescence polarization (anisotropy) of 2-FITC-InsP3/IP3K-KD complex. The format is binding. Conditions: for IC50: 100 nM IP3K-KD, 2 nM 2-FITC-InsP3, 20 mM HEPES pH 7.5, 1 mM EDTA, 50 mM KCl, n=4 replicates, 5-s and 5-p racemic, read-out: IC50, displacement of 2-FITC-InsP3 from IP3K-KD; for Kd: estimated Ki (Kd) from IC50 with [2-FITC-InsP3] 2 nM and its Kd 68 nM, read-out: Kd inferred from IC50 (Cheng and Prusoff). On the procedure: (§1) A construct encoding human IP3K-KD A isoform (residues 187–461) into pOPTG vector was used[16]. The protein was expressed in Escherichia coli BL21 star (DE3) strain. Cells were grown at 37 °C to OD600 = 1.0 then induced with 0.4 mM IPTG for 18 h at 16 °C. Protein purification was performed by adapting the reported protocol. Cells were resuspended in buffer A (10 mM Tris pH 7.5 [4 °C], 200 mM NaCl and 2 mM DTT) and disrupted by sonication. Clarified cell lysate was diluted 1/4 in buffer B (10 mM Tris pH 7.5 [4 °C] and 2 mM DTT) and loaded into a 5 mL HiTrap heparin column (GE Healthcare) washed by buffer C (20 mM Tris pH 7.5, 50 mM NaCl and 2 mM DTT), and eluted with a 0.05 M–1 M salt gradient. The eluted sample was subsequently loaded on to a 5 mL glutathione–Sepharose HP column (GE Healthcare), washed with buffer A and eluted with reduced glutathione 10 mM (Sigma-Aldrich) in buffer A. The GST tag was cleaved with home-made TEV (tobacco etch virus) protease overnight at 4 °C, (1:40 TEV/protein mass ratio). After glutathione removal with a PD10 column, the cleaved protein was further purified using a 5 mL glutathione–Sepharose HP column (GE Healthcare) followed by gel filtration on a 16/600 Superdex200 (GE Healthcare) column equilibrated in buffer D (20 mM Tris pH 7.5 [4 °C], 0.05 M (NH4)2SO4 and 2 mM DTT). Protein samples were analyzed by SDS/PAGE, concentrated around 18 mg/mL and stored at −80 °C until use.
Binding of a competing/displacing ligand to protein is observed as a decrease in the polarization (anisotropy) of 2-FITC-InsP3. A comparison of the strength of binding of enzyme substrates, analogues and products to IP3K-KD was obtained by measurement of fluorescence polarization (here anisotropy) of 2-FITC-InsP3/IP3K-KD complex. Experimentally, 100 nM IP3K-KD was mixed with 2 nM 2-FITC-InsP3[37] in 20 mM HEPES pH 7.5, 1 mM EDTA and 50 mM KCl with the addition of displacing compounds over a range of 1 nM–50 μM. Assays were analyzed using a ClarioSTAR plate reader and IC50 values determined from fit of the data to a 4-parameter logistic as described. From IC50 values, we have estimated the Ki (Kd) values for the displacing ligands using the equation of Cheng and Prusoff:[69]1 Ki=IC50/1+L/Kd where [L] is the ligand (2-FITC-InsP3) concentration and Kd the dissociation constant for its interaction with IP3K-KD. […] Consequently, the Ki values for the displacing ligands differ trivially from their IC50 values.

The target of assay [2] is T1, IP3K-KD (human IP3K-KD A isoform, residues 187–461). Kind of assay: Fluorescence thermal shift analysis (Tycho NT.6, inflection temperature Ti). It is filed as binding. The following applies: for Ti, transition 1 (mean inflection temperature) / Ti, transition 2 (mean inflection temperature): 10 μM IP3K-KD, 100 μM chiral or 200 μM racemic ligand, AMP-PNP or ADP, 100 μM MgCl2; for Ti, transition 1 (mean inflection temperature) / Ti, transition 2 (mean inflection temperature) / ΔTi, transition 1 / ΔTi, transition 2: mean ± SD, n=3; for ΔTi, transition 1: Ti minus Ti of apo IP3K-KD (44.4); for ΔTi, transition 2: Ti minus Ti of apo IP3K-KD (53.8); for Transition 1 Ti, individual measurement / Transition 2 Ti, individual measurement: source data of Fig. 6b/6c, single replicates; for Transition 1 Dti (Ti-Ti Apo) / Transition 1 Ti Mean / Transition 2 DTi (Ti-Ti Apo) / Transition 2 Ti Mean: source data of Fig. 6c, N 3. On the procedure: as §1
Thermal protein denaturation was documented by recording intrinsic protein fluorescence at 330 and 350 nm wavelengths. The fluorescence recorded in each thermal run is plotted as 350/330 nm ratio and used to calculate the Inflection Temperature (Ti). Ti is the temperature at which a protein undergoes a transition in its folding state. This calculation is performed automatically by the Tycho NT.6 software. The protocol optimized for this procedure, involves a heating time of 2 min, a sample volume of 10 μl placed in a very thin capillary, and a temperature ramp from 35 °C (308 K) to 95 °C (368 K). For the experiment, IP3K-KD was diluted with buffer D to achieve a concentration of 0.31 mg/mL (10 μM). It was then mixed with 100 μM of chiral ligands or 200 μM of racemic ligands (all synthesized as stated in this work except InsP3 and InsP4 that were commercial from Avanti Polar Lipids), AMP-PNP (substrate analogues) or ADP (product-like ligands) and 100 μM MgCl2. Microsoft Excel was used to calculate and plot ΔTi values and standard deviations.

T1 sequence (P23677 187-461): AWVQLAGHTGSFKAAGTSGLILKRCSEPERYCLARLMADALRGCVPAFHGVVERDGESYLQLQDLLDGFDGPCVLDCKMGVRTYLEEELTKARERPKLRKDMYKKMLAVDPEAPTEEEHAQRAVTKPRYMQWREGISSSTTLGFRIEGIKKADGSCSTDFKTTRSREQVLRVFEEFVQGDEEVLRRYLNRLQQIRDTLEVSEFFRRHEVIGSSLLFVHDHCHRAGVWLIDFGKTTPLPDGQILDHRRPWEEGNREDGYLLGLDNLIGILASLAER

The term IC50 denotes the concentration at which inhibition is half-maximal. For orientation: Kd means the concentration at which binding is half-saturated. With `O=P(O)(O)O[C@@H]1[C@@H](O)[C@H](OP(=O)(O)O)[C@@H](OP(=O)(O)O)[C@H](OP(=O)(O)O)[C@H]1O` [1-p, scyllo-inositol 1,2,3,5-tetrakisphosphate], in assay [1], the IC50 was determined as 51 nM and the Kd was 50 nM. Also, in assay [2], the “Ti, transition 1 (mean inflection temperature)” value was 54.7 ± 0.2 ºC; the “Ti, transition 2 (mean inflection temperature)” value is recorded as 59.9 ± 0.2 ºC; the “ΔTi, transition 1” value was 10.3 ± 0.3 ºC; the “ΔTi, transition 2” value was 6.1 ± 0.2 ºC. In assay [2], the “Transition 1 Ti, individual measurement” value was 54.7 and 54.9 and 54.6; the “Transition 2 Ti, individual measurement” value is 59.7 and 60.0 and 59.9; the “Transition 1 Dti (Ti-Ti Apo)” value is listed as 10.3; the “Transition 1 Ti Mean” value amounted to 54.7. Besides, in assay [2], the “Transition 2 DTi (Ti-Ti Apo)” value came to 6.1 and the “Transition 2 Ti Mean” value is listed as 59.9.

`O=P(O)(O)O[C@@H]1[C@H](O)[C@H](O)[C@@H](OP(=O)(O)O)[C@H](OP(=O)(O)O)[C@H]1O` [InsP3, D-myo-inositol 1,4,5-trisphosphate, reference compound]: in assay [1], the IC50 was 140 nM and 139 nM; the Kd is 136 nM. In assay [2], the “Ti, transition 1 (mean inflection temperature)” value is listed as 52.9 ± 0.2 ºC; the “Ti, transition 2 (mean inflection temperature)” value is 58.2 ± 0.2 ºC; the “ΔTi, transition 1” value is 8.5 ± 0.3 ºC; the “ΔTi, transition 2” value is recorded as 4.4 ± 0.2 ºC. In assay [2], the “Transition 1 Ti, individual measurement” value was 52.8 and 52.9 and 53.1; the “Transition 2 Ti, individual measurement” value was 58.1 (2×) and 58.4; the “Transition 1 Dti (Ti-Ti Apo)” value worked out at 8.5; the “Transition 1 Ti Mean” value is 52.9. Also, in assay [2], the “Transition 2 DTi (Ti-Ti Apo)” value was 4.4 and the “Transition 2 Ti Mean” value is given as 58.2.

Take `O=P(O)(O)O[C@H]1[C@H](O)[C@@H](OP(=O)(O)O)[C@H](OP(=O)(O)O)[C@@H](OP(=O)(O)O)[C@H]1O` [InsP4, D-myo-inositol 1,3,4,5-tetrakisphosphate, reference compound]: in assay [1], the IC50 turned out to be 60 nM and the Kd was 58 nM. For the same compound, in assay [2], the “Ti, transition 1 (mean inflection temperature)” value is reported as 53.5 ± 0.2 ºC; the “Ti, transition 2 (mean inflection temperature)” value is on record as 58.8 ± 0.2 ºC; the “ΔTi, transition 1” value is 9.1 ± 0.4 ºC; the “ΔTi, transition 2” value is 5.0 ± 0.3 ºC. In addition, in assay [2], the “Transition 1 Ti, individual measurement” value is 53.7 and 53.3 and 53.5; the “Transition 2 Ti, individual measurement” value was 59.0 and 58.6 and 58.7; the “Transition 1 Dti (Ti-Ti Apo)” value came out at 9.1; the “Transition 1 Ti Mean” value was determined as 53.5. In assay [2], the “Transition 2 DTi (Ti-Ti Apo)” value is 5.0 and the “Transition 2 Ti Mean” value is 58.8.

Take `CO[C@@H]1O[C@H](CO)[C@@H](O[C@H]2[C@H](O)[C@H](O)[C@@H](OP(=O)(O)O)[C@H](OP(=O)(O)O)[C@H]2O)[C@H]1OP(=O)(O)O` [compound 9, D-chiro-inositol ribophostin]: in assay [2], the “Ti, transition 1 (mean inflection temperature)” value was 44.5 ± 0.4 ºC; the “Ti, transition 2 (mean inflection temperature)” value is 54.5 ± 0.1 ºC; the “ΔTi, transition 1” value was 0.1 ± 0.5 ºC; the “ΔTi, transition 2” value is 0.7 ± 0.2 ºC. In addition, in assay [2], the “Transition 1 Ti, individual measurement” value was 44.2 and 44.9 and 44.5; the “Transition 2 Ti, individual measurement” value was 54.5 (2×) and 54.4; the “Transition 1 Dti (Ti-Ti Apo)” value is given as 0.133; the “Transition 1 Ti Mean” value is 44.5. In assay [2], the “Transition 2 DTi (Ti-Ti Apo)” value is on record as 0.667 and the “Transition 2 Ti Mean” value is 54.5. Moreover, in assay [2] (Fig. 6b,c), the “Binding to IP3K (in words)” value is “do not, or barely, bind IP3K”. In assay [2] (thermal shift, Fig. 6c), the “Stabilization of IP3K-KD by ligand (in words)” value was “failure to obtain crystal complexes or observe protein stabilization”.
